The values below are quoted from earlier work in patent US20010007868A1, “COMPOSITIONS FOR INHIBITING INTESTINAL IRON ABSORPTION” (priority 1998, published 2001).

The conditions of series [1]: rats.
For series [2] the following is noted: humans.
The test system of series [3] is intestinal absorption of iron (IAI).
For series [4] the following is noted: fertile women, 50 mg/day over a 10 week period.

Where two headings read alike, the source gives them in different places.

`O=C(O)CCCC[C@@H]1CCSS1` (racemic) [Lipoic acid]: the “effect on insulin resistance” value in series [1] and in series [2] was “improve insulin resistance” each time.
Regarding `Cc1c(O)c(=O)ccn1C` [Deferiprone], the “reduction of atherogenesis, in-vivo results” value is recorded as “not statistically significant”.
With `O=C1O[C@H]([C@@H](O)CO)C(O)=C1O` [ascorbic acid], the “effect on IAI” value in series [3] (with phytate-containing meal) is “enhances IAI and offsets the inhibitory effect of phytate”.
Consider `O=C([O-])[O-].[Ca+2]` [calcium carbonate], for which the “decrease of IAI” value in series [3] (doses of about 300 mg per meal, both heme and non-heme iron sources) was 50-60%.
As to `O=P([O-])([O-])O[C@H]1[C@H](OP(=O)([O-])O)[C@H](OP(=O)([O-])[O-])[C@H](OP(=O)([O-])O)[C@@H](OP(=O)([O-])[O-])[C@@H]1OP(=O)([O-])O.[Na+].[Na+].[Na+].[Na+].[Na+].[Na+].[Na+].[Na+].[Na+]` [sodium phytate], the “reduction of IAI” value in series [3] (dose between 50-300 mg consumed at the time of a meal) is given as “about 85%”.
Turning to `[Zn]` [zinc], in series [4], the “reduction of serum ferritin levels” value was “about 20%”.
